Test results from publication PMC7139549, “TLD1433 Photosensitizer Inhibits Conjunctival Melanoma Cells in Zebrafish Ectopic and Orthotopic Tumour Models” (Cancers, 2020).

Tests used:
CRMM2 cells = assay: Annexin-V-FITC / Propidium Iodide FACS, CRMM2; assay type: cell-based, Human
Text: Depending on the nature and intracellular localization of a PS, the light dose, and the cell type, PDT is known to provoke either necrosis, apoptosis, or autophagy. In order to investigate the death mechanism induced by green light-activated TLD1433 in CRMM1 and CRMM2 cells, the cells were stained with Annexin V and propidium iodide, and further analysed by fluorescence-activated cell sorting (FACS).
Figure 3 Green light irradiation of TLD1433 induces apoptosis and necrosis in CRMM1 and CRMM2 cells. (A) CRMM1 and (C) CRMM2 were stained with Annexin-V-FITC and Propidium Iodide. The percentages of live, early apoptotic, later apoptotic and necrotic cells in CRMM1 (B) and CRMM2 (D) were counted by FACS. Results are presented as means ± SD from three independent experiments. […]

[1] = tested on: CRMM1 engrafted cells in zebrafish orthotopic model; assay: In situ TUNEL assay, CRMM1 orthotopic zebrafish model; assay type: in vivo, Zebrafish (Danio rerio); details: RO 2.3 mM
Experimental: In situ TUNEL assay on fixed embryos was used to detect TLD1433 induced apoptosis in zebrafish CRMM1 and CRMM2 orthotopic tumour models at 4 dpi after light activation of 2.3 mM TLD1433, administrated by retro orbital injection. The DNA strand breaks in apoptotic tumour cells were stained with fluorescein and visualized as a green signal.
Figure 10 TUNEL assay of in CRMM1 and CRMM2 orthotopic model after RO of TLD1433. Red fluorescent CRMM1 (A) and CRMM2 (B) cells were injected at 2dpf behind the ZF eye and divided into four groups for drug treatment. RO administration of vehicle control and TLD1433 was performed as described in Figure 9C,E. After dark or light exposure (21 mW/cm^2, 114 J.cm^−2, 520 nm) embryos were fixed and TUNEL staining was performed. Representative images of embryos are shown in this figure. (A,B) In TLD1433 light groups nuclear DNA fragmentation by nucleases is detected by co-localization of green (DNA fragments) and red signal of engrafted CM cells, depicted as yellow signal and marked by white arrows. In control dark, control light, TLD1433 dark, there are no positive green apoptotic tumour cells observed. […] Experiment was performed 3 times with a group size of 10 embryos.
The zebrafish larvae were fixed overnight with 4% PFA at 4 °C. Embryos were washed in PBST for 5 min and dehydrated by a graded methanol series until reaching 100% methanol. […]

Structure (SMILES): Cc1ccnc(-c2cc(C)ccn2)c1.Cc1ccnc(-c2cc(C)ccn2)c1.[Cl-].[Cl-].[Ru+2].c1csc(-c2ccc(-c3ccc(-c4nc5c6cccnc6c6ncccc6c5[nH]4)s3)s2)c1 [TLD1433]
- cell fate by FACS (in words) (CRMM2 cells; CRMM2, dark TLD1433 group): most cells were found alive
- cell fate by FACS (in words) (CRMM2 cells; CRMM2, light-activated TLD1433 group): about half of the cells were found dead
- TUNEL apoptosis of engrafted cells (in words) ([1]; dark, 4 dpi): no positive green signal detected
- TUNEL apoptosis of engrafted cells (in words) ([1]; light 114 J.cm^−2, 4 dpi): induced CRMM1 and CRMM2 cell apoptosis
